Test [1] concerns the target T1, human TLR7 (hTLR7) (Homo sapiens, UniProt Q9NYK1).
T1 construct: expressed in transfected cells; host or cells: HEK293
T1 sequence (Q9NYK1 27-1049): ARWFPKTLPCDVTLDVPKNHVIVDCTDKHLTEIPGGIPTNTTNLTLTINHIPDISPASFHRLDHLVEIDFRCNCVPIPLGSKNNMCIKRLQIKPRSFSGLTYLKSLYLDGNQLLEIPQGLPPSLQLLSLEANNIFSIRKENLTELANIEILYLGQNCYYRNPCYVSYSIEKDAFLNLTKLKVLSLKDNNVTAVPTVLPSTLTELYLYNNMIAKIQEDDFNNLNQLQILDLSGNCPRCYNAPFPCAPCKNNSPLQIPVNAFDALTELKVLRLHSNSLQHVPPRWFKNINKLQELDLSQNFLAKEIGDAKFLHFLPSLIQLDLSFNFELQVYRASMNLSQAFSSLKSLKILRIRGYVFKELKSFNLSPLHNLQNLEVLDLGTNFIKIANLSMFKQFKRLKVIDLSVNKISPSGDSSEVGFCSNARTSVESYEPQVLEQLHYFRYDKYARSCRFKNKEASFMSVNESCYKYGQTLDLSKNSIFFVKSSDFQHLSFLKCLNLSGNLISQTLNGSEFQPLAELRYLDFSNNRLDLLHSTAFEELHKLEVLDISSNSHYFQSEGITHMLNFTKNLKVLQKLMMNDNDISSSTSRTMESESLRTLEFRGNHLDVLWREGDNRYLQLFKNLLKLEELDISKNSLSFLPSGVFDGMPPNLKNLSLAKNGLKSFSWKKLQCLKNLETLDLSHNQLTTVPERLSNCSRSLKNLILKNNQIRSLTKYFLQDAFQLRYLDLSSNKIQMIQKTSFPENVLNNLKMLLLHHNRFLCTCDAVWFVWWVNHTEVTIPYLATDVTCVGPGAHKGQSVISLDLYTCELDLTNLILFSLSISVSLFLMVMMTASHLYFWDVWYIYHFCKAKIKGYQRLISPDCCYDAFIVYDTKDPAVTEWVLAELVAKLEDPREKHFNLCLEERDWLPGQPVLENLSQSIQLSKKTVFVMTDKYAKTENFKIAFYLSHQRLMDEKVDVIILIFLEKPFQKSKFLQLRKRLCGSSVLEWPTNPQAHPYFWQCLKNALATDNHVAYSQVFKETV
Description: TLR7 cellular NFκB-luc reporter assay in transiently transfected HEK293 cells. The format is cell-based. Further details: unit not given here. Particulars: lowest effective concentration, wild type TLR7, 48 hours incubation. On the procedure: (§1) The ability of compounds to activate human TLR7 (hTLR7) and/or TLR8 (hTLR8) was assessed in a cellular reporter assay using HEK293 cells transiently transfected with a TLR7 or TLR8 expression vector and NFκB-luc reporter construct. In one instance the TLR expression construct expresses the respective wild type sequence or a mutant sequence comprising a deletion in the second leucine-rich repeat of the TLR. […] Briefly, HEK293 cells were grown in culture medium (DMEM supplemented with 10% FCS and 2 mM Glutamine). For transfection of cells in 10 cm dishes, cells were detached with Trypsin-EDTA, transfected with a mix of CMV-TLR7 or TLR8 plasmid (750 ng), NFκB-luc plasmid (375 ng) and a transfection reagent and incubated overnight at 37° C. in a humidified 5% CO2 atmosphere. Transfected cells were then detached with Trypsin-EDTA, washed in PBS and resuspended in medium to a density of 1.67×10^5 cells/mL. Thirty microliters of cells were then dispensed into each well in 384-well plates, where 10 μL of compound in 4% DMSO was already present. Following 48 hours incubation at 37° C., 5% CO2, the luciferase activity was determined by adding 15 μl of Steady Lite Plus substrate (Perkin Elmer) to each well and readout performed on a ViewLux ultraHTS microplate imager (Perkin Elmer). Dose response curves were generated from measurements performed in quadruplicates. Lowest effective concentrations (LEC) values, defined as the concentration that induces an effect which is at least two fold above the standard deviation of the assay, were determined for each compound.

Test [2] addresses T2, human TLR8 (hTLR8) (Homo sapiens, UniProt Q9NR97).
T2 construct: expressed in transfected cells; host or cells: HEK293
T2 sequence (Q9NR97 27-1041): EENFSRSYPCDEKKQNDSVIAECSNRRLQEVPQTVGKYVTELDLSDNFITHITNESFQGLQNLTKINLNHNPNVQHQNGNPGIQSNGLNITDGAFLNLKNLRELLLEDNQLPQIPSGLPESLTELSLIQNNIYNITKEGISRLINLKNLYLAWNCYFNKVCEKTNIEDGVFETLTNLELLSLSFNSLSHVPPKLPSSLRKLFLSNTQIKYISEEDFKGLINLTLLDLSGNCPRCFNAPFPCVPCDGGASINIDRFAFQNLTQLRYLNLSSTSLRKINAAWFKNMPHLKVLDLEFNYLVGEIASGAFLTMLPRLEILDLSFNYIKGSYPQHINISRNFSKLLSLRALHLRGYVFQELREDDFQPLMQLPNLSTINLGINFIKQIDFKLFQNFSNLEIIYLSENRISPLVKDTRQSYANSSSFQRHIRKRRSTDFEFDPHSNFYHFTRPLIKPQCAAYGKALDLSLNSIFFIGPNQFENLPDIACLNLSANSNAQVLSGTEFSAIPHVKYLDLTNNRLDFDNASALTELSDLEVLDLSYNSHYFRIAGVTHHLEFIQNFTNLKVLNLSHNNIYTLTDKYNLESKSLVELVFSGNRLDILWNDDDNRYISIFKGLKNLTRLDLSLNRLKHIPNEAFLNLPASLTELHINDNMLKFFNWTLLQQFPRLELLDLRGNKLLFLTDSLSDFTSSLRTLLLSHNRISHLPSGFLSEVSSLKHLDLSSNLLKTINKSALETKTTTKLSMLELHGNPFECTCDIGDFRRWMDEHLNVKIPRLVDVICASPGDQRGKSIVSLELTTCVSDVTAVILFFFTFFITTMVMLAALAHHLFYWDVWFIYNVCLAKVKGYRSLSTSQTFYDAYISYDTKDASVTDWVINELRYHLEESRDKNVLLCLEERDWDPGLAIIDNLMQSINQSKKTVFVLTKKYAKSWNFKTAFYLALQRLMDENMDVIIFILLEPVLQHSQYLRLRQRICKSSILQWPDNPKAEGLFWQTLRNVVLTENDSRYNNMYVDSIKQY
Briefly: TLR8 cellular NFκB-luc reporter assay in transiently transfected HEK293 cells. The format is cell-based. More on the design: unit not given here. As to conditions: lowest effective concentration, wild type TLR8, 48 hours incubation. On the procedure:
as §1

The source of these data is US9284304B2, “Substituted pyrimidines as toll-like receptor modulators” (JANSSEN SCIENCES IRELAND UC, priority 2012, dated 2016).

As for `CCCCNc1nc(N)ncc1CC.Cl` [Example 1], the “hTLR7 wt (LEC)” value in test [1] was 2.4. In addition, the “hTLR8 wt (LEC)” value in test [2] is 1.3.

For `CCCCNc1nc(N)ncc1CCc1ccccc1.Cl` [Example 2], in test [1], the “hTLR7 wt (LEC)” value is reported as 6.7. Moreover, the “hTLR8 wt (LEC)” value in test [2] is given as 6.5.

As to `CCCCNc1nc(N)ncc1CCc1ccc(OC)cc1OC.Cl` [Example 3], the “hTLR7 wt (LEC)” value in test [1] worked out at 2.4. Also, the “hTLR8 wt (LEC)” value in test [2] was 12.

As to `CCCCNc1nc(N)ncc1CCc1ccccc1OC.Cl` [Example 4], the “hTLR7 wt (LEC)” value in test [1] was determined as 5. Also, the “hTLR8 wt (LEC)” value in test [2] was 13.

For `CCCCNc1nc(N)ncc1CCc1cccnc1.Cl` [Example 5], in test [1], the “hTLR7 wt (LEC)” value worked out at 1.2. The “hTLR8 wt (LEC)” value in test [2] stood at 1.4.

For `CCCCNc1nc(N)ncc1CCc1ccccn1.Cl` [Example 6], the “hTLR7 wt (LEC)” value in test [1] is reported as 0.6. Also, in test [2], the “hTLR8 wt (LEC)” value is recorded as 1.6.

For the compound `CCCCNc1nc(N)ncc1CCc1ccc2ccccc2n1.Cl` [Example 7], the “hTLR7 wt (LEC)” value in test [1] is 0.5. Further, in test [2], the “hTLR8 wt (LEC)” value is recorded as 1.2.

`CCCCNc1nc(N)ncc1CCc1cccs1.Cl` [Example 8]: the “hTLR7 wt (LEC)” value in test [1] was 8.1. Further, the “hTLR8 wt (LEC)” value in test [2] was 3.6.
